Test results from article PMC6274106, “Evaluation and Comparison of the Inhibition Effect of Astragaloside IV and Aglycone Cycloastragenol on Various UDP-Glucuronosyltransferase (UGT) Isoforms” (Molecules, 2016).

Legend:
Assay type in all cases: biochemical
UGT1A3 = biological target: T1, UGT1A3 (Homo sapiens, UniProt P35503); experiment: 4-MU glucuronidation screen, […] inhibition at […]
T1 construct: recombinant human UGT supersomes (baculovirus-infected insect cells)
T1 sequence (P35503 29-534): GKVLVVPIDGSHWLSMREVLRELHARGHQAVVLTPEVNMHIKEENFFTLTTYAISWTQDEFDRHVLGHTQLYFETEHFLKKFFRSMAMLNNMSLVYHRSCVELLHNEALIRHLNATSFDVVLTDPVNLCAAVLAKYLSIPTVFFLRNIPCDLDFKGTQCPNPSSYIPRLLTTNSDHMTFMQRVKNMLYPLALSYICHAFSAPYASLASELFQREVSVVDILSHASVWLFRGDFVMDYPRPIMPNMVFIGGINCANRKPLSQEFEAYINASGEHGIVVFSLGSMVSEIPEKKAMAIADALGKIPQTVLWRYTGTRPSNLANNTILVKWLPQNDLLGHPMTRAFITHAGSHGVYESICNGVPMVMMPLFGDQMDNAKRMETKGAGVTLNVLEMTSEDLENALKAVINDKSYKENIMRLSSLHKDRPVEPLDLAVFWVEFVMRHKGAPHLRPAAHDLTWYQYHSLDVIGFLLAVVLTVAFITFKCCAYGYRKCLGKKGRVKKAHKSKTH

UGT2B7 [1] = biological target: T2, UGT2B7 (Homo sapiens, UniProt P16662); experiment: 4-MU glucuronidation by recombinant UGT supersomes, UPLC-UV; Dixon and Lineweaver-Burk plots (IC50 […])
T2 construct: recombinant human UGT supersomes (baculovirus-infected insect cells)
T2 sequence (P16662 24-529): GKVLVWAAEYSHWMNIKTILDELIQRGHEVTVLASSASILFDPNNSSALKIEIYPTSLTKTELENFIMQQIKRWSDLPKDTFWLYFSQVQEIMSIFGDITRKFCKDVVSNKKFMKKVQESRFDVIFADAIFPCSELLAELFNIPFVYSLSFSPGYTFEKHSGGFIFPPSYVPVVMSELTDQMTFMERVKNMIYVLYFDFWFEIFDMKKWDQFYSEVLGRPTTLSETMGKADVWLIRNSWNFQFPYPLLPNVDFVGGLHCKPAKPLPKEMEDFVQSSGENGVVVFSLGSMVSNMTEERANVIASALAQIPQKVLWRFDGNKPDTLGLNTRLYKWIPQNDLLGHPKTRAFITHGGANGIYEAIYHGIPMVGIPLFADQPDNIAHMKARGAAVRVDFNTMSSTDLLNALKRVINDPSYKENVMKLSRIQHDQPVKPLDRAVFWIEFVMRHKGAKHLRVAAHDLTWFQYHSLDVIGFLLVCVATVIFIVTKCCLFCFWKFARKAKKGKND

UGT1A8 = biological target: T3, UGT1A8 (Homo sapiens, UniProt Q9HAW9); experiment: as above
T3 construct: recombinant human UGT supersomes (baculovirus-infected insect cells)
T3 sequence (Q9HAW9 26-530): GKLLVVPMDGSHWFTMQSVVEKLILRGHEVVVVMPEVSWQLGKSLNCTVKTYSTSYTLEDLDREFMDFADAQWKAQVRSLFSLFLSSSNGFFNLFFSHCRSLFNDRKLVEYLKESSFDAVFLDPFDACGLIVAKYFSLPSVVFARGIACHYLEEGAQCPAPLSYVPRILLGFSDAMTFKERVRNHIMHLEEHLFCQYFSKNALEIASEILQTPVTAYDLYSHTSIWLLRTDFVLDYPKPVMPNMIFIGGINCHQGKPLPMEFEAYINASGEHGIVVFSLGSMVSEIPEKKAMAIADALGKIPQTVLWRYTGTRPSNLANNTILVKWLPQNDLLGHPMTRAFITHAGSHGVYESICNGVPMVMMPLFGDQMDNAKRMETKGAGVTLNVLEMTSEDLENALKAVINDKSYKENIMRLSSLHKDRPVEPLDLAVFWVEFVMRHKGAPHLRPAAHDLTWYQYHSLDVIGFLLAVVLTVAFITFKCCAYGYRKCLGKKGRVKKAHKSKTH

UGT1A1 = biological target: T4, UGT1A1 (Homo sapiens, UniProt P22309); experiment: 4-MU glucuronidation screen, […] inhibition at […]
T4 construct: recombinant human UGT supersomes (baculovirus-infected insect cells)
T4 sequence (P22309 26-533): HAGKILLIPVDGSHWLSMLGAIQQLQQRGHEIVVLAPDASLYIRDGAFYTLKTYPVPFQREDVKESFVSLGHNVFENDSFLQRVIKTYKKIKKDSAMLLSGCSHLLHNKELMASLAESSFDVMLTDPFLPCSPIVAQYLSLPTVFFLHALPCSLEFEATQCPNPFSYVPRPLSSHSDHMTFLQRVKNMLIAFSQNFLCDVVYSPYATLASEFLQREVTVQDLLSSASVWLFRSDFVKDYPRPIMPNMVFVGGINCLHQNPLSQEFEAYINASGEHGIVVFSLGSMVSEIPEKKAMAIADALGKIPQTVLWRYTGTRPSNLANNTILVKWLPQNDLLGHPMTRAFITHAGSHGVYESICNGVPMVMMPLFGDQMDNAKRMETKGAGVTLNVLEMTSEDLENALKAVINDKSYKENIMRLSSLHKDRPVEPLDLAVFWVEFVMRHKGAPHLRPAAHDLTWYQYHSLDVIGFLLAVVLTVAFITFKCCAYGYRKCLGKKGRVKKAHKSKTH

UGT2B7 [2] = biological target: T2, UGT2B7; experiment: 4-MU glucuronidation screen, […] inhibition at […]

Row | Compound | inhibition at 100 µM (UGT1A3) | Ki (UGT2B7 [1]) | Ki (UGT1A8) | inhibition at 100 µM (UGT1A1) | inhibition at 100 µM (UGT2B7 [2])
1 | CC(C)(O)[C@@H]1CC[C@](C)([C@H]2[C@@H](O)C[C@@]3(C)[C@@H]4C[C@H](O)[C@H]5C(C)(C)[C@@H](O)CC[C@@]56C[C@@]46CC[C@]23C)O1 [CAG, cycloastragenol] | 75.2% | 21 µM | 34 nM | 50.2% | 
2 | CC(C)(O)[C@@H]1CC[C@](C)([C@H]2[C@@H](O)C[C@@]3(C)[C@@H]4C[C@H](O[C@@H]5O[C@H](CO)[C@@H](O)[C@H](O)[C@H]5O)[C@H]5C(C)(C)[C@@H](O[C@@H]6OC[C@@H](O)[C@H](O)[C@H]6O)CC[C@@]56C[C@@]46CC[C@]23C)O1 [AST, astragaloside IV] |  |  |  |  | 51.5%
